Values joined by “and” are separate entries in the source; they are usually repeats but may differ in a detail not shown here. Equal entries are not always repeated.
What was measured:
Genome polyprotein [1] = target: T1, Genome polyprotein (dengue virus type 2, UniProt P29990); assay type: functional, Thailand/16681/1984
Genome polyprotein [2] = target: T1, Genome polyprotein; assay type: functional, Thailand/16681/1984; remark: listed apart in the source

T1 sequence (P29990 1346-1475 limits assumed): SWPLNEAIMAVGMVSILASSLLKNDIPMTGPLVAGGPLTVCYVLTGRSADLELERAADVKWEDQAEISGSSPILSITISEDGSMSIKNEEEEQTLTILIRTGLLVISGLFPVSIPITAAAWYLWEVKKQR
T1 sequence (P29990 1476-2093 limits assumed): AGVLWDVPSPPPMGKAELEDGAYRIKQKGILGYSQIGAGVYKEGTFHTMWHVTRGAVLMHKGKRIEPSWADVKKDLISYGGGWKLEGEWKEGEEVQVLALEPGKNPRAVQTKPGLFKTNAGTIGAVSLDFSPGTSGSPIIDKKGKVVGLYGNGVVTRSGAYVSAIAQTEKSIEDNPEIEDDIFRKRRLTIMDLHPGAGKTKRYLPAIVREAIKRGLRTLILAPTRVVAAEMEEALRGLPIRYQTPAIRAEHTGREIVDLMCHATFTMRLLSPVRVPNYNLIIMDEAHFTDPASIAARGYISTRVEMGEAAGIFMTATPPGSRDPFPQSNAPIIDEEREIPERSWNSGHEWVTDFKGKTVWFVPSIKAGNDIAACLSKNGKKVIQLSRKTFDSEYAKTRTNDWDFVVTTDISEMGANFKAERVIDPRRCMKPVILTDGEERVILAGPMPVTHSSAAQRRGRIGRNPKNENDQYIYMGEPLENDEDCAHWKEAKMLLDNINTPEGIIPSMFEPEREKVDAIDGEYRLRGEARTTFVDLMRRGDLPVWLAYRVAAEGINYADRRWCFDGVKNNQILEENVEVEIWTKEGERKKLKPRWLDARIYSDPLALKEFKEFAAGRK

Row | SMILES | IC50 (Genome polyprotein [1]) | IC50 (Genome polyprotein [2])
1 | Cn1nc([C@H](C#N)Nc2cccc([C@H]3CCOC3)c2)cc1C1CC1 | > 99.5 µM | > 100 µM
2 | CO[C@H]1C[C@H](n2cc3c(C(=O)Nc4ccc5c(c4)CNC5)cc(Cl)cc3n2)C1 | > 99.5 µM | > 100 µM
3 | O=C(Nc1ccc2c(c1)CNC2)c1cc(F)cc(-c2cn[nH]c2)c1 | > 99.5 µM | 74.7 µM
4 | O=C(Nc1ccc2c(c1)CNC2)c1cc(F)cc(-c2ccnc3c2CCO3)c1 | 83.8 µM | > 100 µM
5 | COc1ccc(OC)c([C@H]2CCCN2C(=O)Nc2ccc3c(c2)CNC3)c1 | > 99.5 µM | > 100 µM
6 | Fc1cc(CNc2ccc3c(n2)CNC3)c2cn[nH]c2c1 | > 99.5 µM | > 100 µM
7 | O=C(Nc1cc(-c2cccnc2)ccn1)c1cc2n(n1)CCC2 | > 99.5 µM | > 100 µM
8 | Cc1c(C(=O)Nc2cc(-c3cccnc3)ccn2)cnn1C1CC1 | > 99.5 µM | > 100 µM
9 | CNC(=O)[C@H](Nc1ccc2c(c1)CNC2)c1cc(Cl)cc2[nH]c(-c3ccccc3)nc12 | 49.6 µM | 21.2 µM and 23.2 µM
10 | O=C(Nc1ccc2c(c1)CN[C@H]2C[C@H](O)CO)c1cc(F)cc2[nH]ncc12 | 40.1 µM | 23.2 µM and 22.1 µM
11 | O=C(Nc1cc([C@H]2CCOC2)ccn1)c1cc(F)cc2[nH]ccc12 | > 99.5 µM | > 100 µM
12 | NC[C@H]1OCCc2sc(C(=O)Nc3cc(-c4cccnc4)ccn3)cc21 | > 99.5 µM | > 100 µM
13 | CN(C)c1nc(-c2cc(F)cc(C(=O)Nc3ccc4c(c3)CNC4)c2)cs1 | > 99.5 µM | > 100 µM
14 | O=C(Nc1cc([C@H]2CCOC2)ccn1)c1cc(F)cc2[nH]ncc12 | > 99.5 µM | > 100 µM
15 | Nc1n[nH]c2cc(C(=O)Nc3ccc4c(c3)CNC4)ccc12 | > 99.5 µM | > 100 µM
16 | CCCn1cc2c(C(=O)Nc3ccc4c(c3)CNC4)cc(Cl)cc2n1 | > 99.5 µM | > 100 µM
17 | O=C(Nc1cc([C@H]2CCOC2)ccn1)c1ccc2scnc2c1 | > 99.5 µM | > 100 µM
18 | CC(C)NC(=O)[C@H](Nc1ccc2c(c1)CN(C)C2(C)C)c1cc(Cl)cc2[nH]ncc12 | 98.9 µM | 28.2 µM
19 | Cc1cc(C(=O)Nc2cc(-c3cccnc3)ccn2)c(C)n1C | > 99.5 µM | > 100 µM
20 | O=C(Nc1cc(-c2cccnc2)ccn1)c1nnc(C2CC2)s1 | > 99.5 µM | > 100 µM
21 | O=C(Nc1ccc2c(c1)CN[C@H]2c1ccccc1)c1cc(F)cc2[nH]ncc12 | > 99.5 µM | 65.9 µM

Row | SMILES | IC50 (Genome polyprotein [1]) | IC50 (Genome polyprotein [2])
22 | O=C1CCc2c(cccc2C(=O)Nc2ccc3c(c2)CNC3)N1 | > 99.5 µM | > 100 µM
23 | CCCCNC(=O)[C@H](Nc1ccc2c(c1)CNC2)c1cc(Cl)cc(C2CC2)c1 | > 99.5 µM | > 100 µM
24 | O=C(Nc1cc(-c2cccnc2)ccn1)c1cn([C@H]2CCCNC2)nn1 | > 99.5 µM | > 100 µM
25 | O=S(=O)(Nc1ccc2c(c1)CNC2)c1cccc2[nH]ncc12 | > 99.5 µM | > 100 µM
26 | O=C(NCC(F)F)[C@H](Nc1ccc2c(c1)CNC2)c1cc(Br)cc2[nH]ccc12 | > 99.5 µM | > 100 µM
27 | O=C1Cc2c(cccc2C(=O)Nc2cc([C@H]3CCOC3)ccn2)N1 | > 99.5 µM | > 100 µM
28 | O=C(Nc1ccc2c(c1)CNC2)c1cccc2c1[C@]1(CCNC1)C(=O)N2 | > 99.5 µM | > 100 µM
29 | Cc1ncc(-c2cc(F)cc(C(=O)Nc3ccc4c(c3)CNC4)c2)s1 | > 99.5 µM | > 100 µM
30 | O=C(Nc1cc(-c2cccnc2)ccn1)c1ccc(C2CC2)cc1 | > 99.5 µM | > 100 µM
31 | O=C(Nc1ccc2c(c1)CNC2)c1cc(F)cc(-c2c[nH]c(=O)c(F)c2)c1 | > 99.5 µM | > 100 µM
32 | COc1cc(C(=O)Nc2ccc3c(c2)CNC3)cc2cnn(C)c12 | > 99.5 µM | > 100 µM
33 | O=C(Nc1cc([C@H]2CCOC2)ccn1)c1cc(Cl)cc2[nH]ncc12 | > 99.5 µM | > 100 µM
34 | CC(C)NC(=O)[C@H](Nc1ccc2c(c1)CNC2)c1cccc2cn[nH]c12 | > 99.5 µM | > 100 µM
35 | O=C(Nc1cc2c(cc1C1CC1)CNC2)c1cc(F)cc2[nH]ncc12 | 70.9 µM | 62.5 µM
36 | C#C[C@H](Nc1cc([C@H]2CCOC2)ccn1)c1cc(C2CC2)n(C)n1 | > 99.5 µM | > 100 µM
37 | CC(C)NC(=O)[C@H](Nc1ccc2c(c1)CN(CC(F)F)C2)c1cc(Cl)cc2[nH]ncc12 | > 99.5 µM | > 100 µM
38 | O=C(Nc1ccc2c(c1)CNC2)c1cc(F)cc(/C=C/c2ccccc2)c1 | 42.1 µM | 57.3 µM
39 | O=C(NCC(F)F)[C@H](Nc1ccc2c(c1)CNC2)c1cc(Cl)cc2[nH]ncc12 | > 99.5 µM | > 100 µM
40 | Cn1ncc2c(C(=O)Nc3ccc4c(c3)CNC4)cc(Cl)cc21 | > 99.5 µM | > 100 µM
41 | O=C(Nc1ccc2c(c1)CN[C@H]2CCO)c1cc(F)cc2[nH]ncc12 | 50.8 µM | 23.9 µM and 29.9 µM
42 | C=CC[C@H]1NCc2cc(NC(=O)c3cc(F)cc4c3CC(=O)N4)ccc21 | 31.9 µM | 31.9 µM and 23.6 µM

Row | SMILES | IC50 (Genome polyprotein [1]) | IC50 (Genome polyprotein [2])
43 | Cc1cnccc1-c1cc(NC(=O)c2cc(F)cc3[nH]ncc23)cc2c1CNC2 | > 99.5 µM | 65.4 µM
44 | O=C(Nc1cc([C@H]2CCOC2)ccn1)c1cc(Br)cc2[nH]ccc12 | > 99.5 µM | > 100 µM
45 | O=C(Nc1ccc2c(c1)CNC2)c1cc(Cl)cc2nn(C3CCC3)cc12 | > 99.5 µM | 89.2 µM
46 | Cc1cc(-c2cc(F)cc(C(=O)Nc3ccc4c(c3)CNC4)c2)[nH]n1 | > 99.5 µM | > 100 µM
47 | Cn1cc2c(C(=O)Nc3ccc4c(c3)CNC4)cc(Cl)cc2n1 | > 99.5 µM | > 100 µM
48 | O=C(Nc1cc([C@H]2CCOC2)ccn1)c1cc(F)c2[nH]ccc2c1 | > 99.5 µM | > 100 µM
49 | CSCCNC(=O)[C@H](Nc1ccc2c(c1)CNC2)c1cc(Cl)cc(C2CC2)c1 | > 99.5 µM | > 100 µM
50 | CS(=O)(=O)N1CC[C@]2(C1)C(=O)Nc1cccc(C(=O)Nc3ccc4c(c3)CNC4)c12 | > 99.5 µM | > 100 µM
51 | COc1ccc([C@H]2C[C@H](C)CN2C(=O)Nc2ccc3c(c2)CNC3)cc1 | > 99.5 µM | > 100 µM
52 | Cc1c(C(=O)Nc2cc(-c3cccnc3)ccn2)cc(CC(C)(C)C)n1C | > 99.5 µM | > 100 µM
53 | CSCCCNC(=O)[C@H](Nc1ccc2c(c1)CNC2)c1cc(Cl)cc(C2CC2)c1 | > 99.5 µM | > 100 µM
54 | CC(C)(C)c1noc2nc(C(=O)Nc3ccc4c(c3)CNC4)ccc12 | > 99.5 µM | > 100 µM
55 | O=C(Nc1ccc2c(c1)CNC2)c1cc(F)cc2nn(-c3ccccn3)nc12 | 4.99 µM and 4.27 µM | 4.11 µM and 3.88 µM
56 | O=C(Nc1cc(-c2cccnc2)ccn1)c1c[nH]c2ncccc12 | > 99.5 µM | > 100 µM
57 | COCCCNC(=O)[C@H](Nc1ccc2c(c1)CNC2)c1cc(Cl)cc(C2CC2)c1 | > 99.5 µM | > 100 µM
58 | O=C(Nc1ccc2c(c1)CNC2)c1ccc2c(Br)csc2c1 | 58.6 µM | > 100 µM
59 | C=C[C@H]1NCc2cc(NC(=O)c3cc(F)cc4[nH]ncc34)ccc21 | 86.6 µM | 34 µM
60 | CC(C)(C)OC(=O)N1Cc2ccc(NC(=O)c3ccc4c(Br)csc4c3)cc2C1 | > 99.5 µM | > 100 µM
61 | O=C(Nc1ccc2c(c1)CNC2)c1cc(F)cc(-c2ccncc2)c1 | > 99.5 µM | > 100 µM

Source: ChEMBL document CHEMBL5604063, “ASAP - DENV-2 NS2B-NS3 protease fluorescence dose response” (2024)
